The results in this text go back to patent US5382584A, “Adenosine re-uptake inhibiting derivatives of diphenyl oxazoles, thiazoles and imidazoles” (Bristol-Myers Squibb Company, priority 1994, dated 1995).

This assay can be described thus: neuroprotective activity of single enantiomers (test not specified). The source says: A chiral synthetic procedure was also developed to provide single enantiomers of certain stereoisomeric compounds of Formula I. The procedure is illustrated in Scheme III. This synthesis results in a Formula I compound with a chiral center in the piperazine ring. […] While both enantiomers were neuroprotective, the S-(-)-enantiomer had about 30 times the activity of the R-(+)-enantiomer. [drawing 11]

Counter-ions that a name gives are not always drawn.

Regarding `Cl.Cl.Cl.NC(=O)[C@H]1CN(Cc2nc(-c3ccccc3)c(-c3ccccc3)o2)CCN1CC(=O)Nc1c(Cl)cc(N)cc1Cl.O` [R-(+)-enantiomer, R-(+)-2-(aminocarbonyl)-N-(4-amino-2,6-dichlorophenyl)-4-[(4,5-diphenyl-2-oxazolyl)methyl]-1-piperazineacetamide trihydrochloride monohydrate], the neuroprotection entry is “neuroprotective”.
Turning to `NC(=O)[C@@H]1CN(Cc2nc(-c3ccccc3)c(-c3ccccc3)o2)CCN1CC(=O)Nc1c(Cl)cc(N)cc1Cl` [S-(-)-enantiomer, S-(-)-2-(aminocarbonyl)-N-(4-amino-2,6-dichlorophenyl)-4-[(4,5-diphenyl-2-oxazolyl)methyl]-1-piperazineacetamide Trihydrochloride], the neuroprotection entry is “neuroprotective”. Besides, the “activity relative to the R-(+)-enantiomer” value (neuroprotective activity) was “about 30 times”.
